Measured values published in PubChem BioAssay AID330 (DTP/NCI, 2004).
Values joined by “and” are separate entries in the source; they are usually repeats but may differ in a detail not shown here. Equal values may be shown once. Toxic doses and inconclusive results are not listed. How the source made its calls: active means survival T/C of 150% or more; inactive means T/C below 125% in these data.

Tested on: P388 leukemia ip, CD2F1 mice, survival T/C
Test: NCI In Vivo Anticancer Drug Screen. Data for tumor model P388 Leukemia (intraperitoneal) in CD2F1 (CDF1) mice
Settings: endpoint: median survival time, higher = longer survival
Procedure, shortened: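 Mice carrying the transplanted tumor received test compound or vehicle. Survival was recorded in each group, and the value is the treated-group measurement divided by that of the vehicle-treated control group.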

[1] = dose: 50.0 mg/kg/injection, schedule: Q01DX005 (ip), vehicle: saline with Tween-80
[2] = dose: 100.0 mg/kg/injection, schedule: Q01DX005 (ip), vehicle: saline with Tween-80
[3] = dose: 200.0 mg/kg/injection, schedule: Q01DX005 (ip), vehicle: saline with Tween-80
[4] = dose: 50.0 mg/kg/injection, schedule: Q01DX009 (ip), vehicle: saline
[5] = dose: 100.0 mg/kg/injection, schedule: Q01DX009 (ip), vehicle: saline
[6] = dose: 50.0 mg/kg/injection, schedule: Q01DX005 (ip), vehicle: Klucel (hydroxypropylcellulose) (HPC)
[7] = dose: 100.0 mg/kg/injection, schedule: Q01DX005 (ip), vehicle: Klucel (hydroxypropylcellulose) (HPC)
[8] = dose: 200.0 mg/kg/injection, schedule: Q01DX005 (ip), vehicle: Klucel (hydroxypropylcellulose) (HPC)

Measured: T/C

CC(NC(=O)C(NC(=O)c1ccc[n+](Cc2ccccc2)c1)C(C)C)C(N)=O (stereo unspecified)
inactive: dose: 7.5 mg/kg/injection, schedule: Q01DX005 (ip), vehicle: saline 109 % of control | dose: 15.0 mg/kg/injection, schedule: Q01DX005 (ip), vehicle: saline 104 % of control | dose: 30.0 mg/kg/injection, schedule: Q01DX005 (ip), vehicle: saline 98 % of control

C=CCC12CC(OC)C(O)CC1(O)OC(c1cc(OC)c(OC)c(OC)c1)C2C (stereo unspecified)
inactive: dose: 1.25 mg/kg/injection, schedule: Q01DX005 (ip), vehicle: acid diluted with saline 115 % of control | dose: 2.5 mg/kg/injection, schedule: Q01DX005 (ip), vehicle: acid diluted with saline 100 % of control | dose: 5.0 mg/kg/injection, schedule: Q01DX005 (ip), vehicle: acid diluted with saline 93 % of control | dose: 10.0 mg/kg/injection, schedule: Q01DX005 (ip), vehicle: acid diluted with saline 106 % of control

Cc1ccc2c(C(=O)O)cc(N)cc2n1
inactive: dose: 2.0 mg/kg/injection, schedule: Q01DX005 (ip), vehicle: Klucel (hydroxypropylcellulose) (HPC) 100 % of control | dose: 4.0 mg/kg/injection, schedule: Q01DX005 (ip), vehicle: Klucel (hydroxypropylcellulose) (HPC) 104 % of control | dose: 7.5 mg/kg/injection, schedule: Q01DX005 (ip), vehicle: Klucel (hydroxypropylcellulose) (HPC) 102 % of control | dose: 8.0 mg/kg/injection, schedule: Q01DX005 (ip), vehicle: Klucel (hydroxypropylcellulose) (HPC) 97 % of control

COC(=O)/C=C1/C(=O)N(C)c2ccccc21
inactive: dose: 12.5 mg/kg/injection, schedule: Q01DX009 (ip), vehicle: saline with Tween-80 98 % of control and 102 % of control | dose: 25.0 mg/kg/injection, schedule: Q01DX009 (ip), vehicle: saline with Tween-80 102 % of control and 111 % of control and 90 % of control | dose: 50.0 mg/kg/injection, schedule: Q01DX009 (ip), vehicle: saline with Tween-80 100 % of control and 106 % of control and 92 % of control | dose: 100.0 mg/kg/injection, schedule: Q01DX009 (ip), vehicle: saline with Tween-80 106 % of control and 110 % of control and 113 % of control

CCOC(C[Se]c1ccccc1)OCC(F)(F)F (stereo unspecified)
inactive: dose: 50.0 mg/kg/injection, schedule: Q04DX003 (ip), vehicle: saline with Tween-80 90 % of control | dose: 100.0 mg/kg/injection, schedule: Q04DX003 (ip), vehicle: saline with Tween-80 102 % of control | dose: 200.0 mg/kg/injection, schedule: Q04DX003 (ip), vehicle: saline with Tween-80 111 % of control

Nc1c(O)c(S(=O)(=O)O)c(O)c2c1C(=O)c1ccccc1C2=O
inactive: dose: 60.0 mg/kg/injection, schedule: Q01DX005 (ip), vehicle: saline with Tween-80 100 % of control | dose: 120.0 mg/kg/injection, schedule: Q01DX005 (ip), vehicle: saline with Tween-80 98 % of control

CCCN(CCC)CC(=O)NC1CC(OC2CC(O)(C(C)=O)Cc3c(O)c4c(c(O)c32)C(=O)c2c(OC)cccc2C4=O)OC(C)C1O (stereo unspecified)
inactive: dose: 0.25 mg/kg/injection, schedule: Q01DX009 (ip), vehicle: water 107 % of control | dose: 0.5 mg/kg/injection, schedule: Q01DX009 (ip), vehicle: water 101 % of control | dose: 1.0 mg/kg/injection, schedule: Q01DX009 (ip), vehicle: water 107 % of control | dose: 2.0 mg/kg/injection, schedule: Q01DX009 (ip), vehicle: water 103 % of control | dose: 4.0 mg/kg/injection, schedule: Q01DX009 (ip), vehicle: water 100 % of control | dose: 8.0 mg/kg/injection, schedule: Q01DX009 (ip), vehicle: water 107 % of control

C/C(=C/Cc1ccccc1)C(=O)O
inactive: dose: 100.0 mg/kg/injection, schedule: Q01DX001 (ip), vehicle: saline with Tween-80 108 % of control | dose: 200.0 mg/kg/injection, schedule: Q01DX001 (ip), vehicle: saline with Tween-80 108 % of control | dose: 400.0 mg/kg/injection, schedule: Q01DX001 (ip), vehicle: saline with Tween-80 99 % of control

CCOC(=O)C1NC(=O)C(C(=O)OCC)NC1=O (stereo unspecified)
inactive: [1] 96 % of control | [2] 92 % of control | [3] 93 % of control

NC(N)=NCCCC(N)C(=O)O (stereo unspecified)
inactive: [4] 119 % of control | [5] 100 % of control and 122 % of control | dose: 200.0 mg/kg/injection, schedule: Q01DX009 (ip), vehicle: saline 105 % of control and 110 % of control | dose: 400.0 mg/kg/injection, schedule: Q01DX009 (ip), vehicle: saline 100 % of control

ONc1ccccc1C(F)(F)F
inactive: [4] 97 % of control | [5] 95 % of control

CCOCCC(=O)NCC(=O)NC1C(CO)OC(Nc2ncnc3nc[nH]c23)C(O)C1O (stereo unspecified)
inactive: dose: 3.12 mg/kg/injection, schedule: Q01DX009 (ip), vehicle: water 98 % of control | dose: 6.25 mg/kg/injection, schedule: Q01DX009 (ip), vehicle: water 88 % of control | dose: 12.5 mg/kg/injection, schedule: Q01DX009 (ip), vehicle: water 98 % of control | dose: 25.0 mg/kg/injection, schedule: Q01DX009 (ip), vehicle: water 106 % of control | dose: 50.0 mg/kg/injection, schedule: Q01DX009 (ip), vehicle: water 101 % of control

CSc1nn(CCC#N)c(=O)[nH]c1=O
inactive: dose: 25.0 mg/kg/injection, schedule: Q01DX005 (ip), vehicle: water 104 % of control | dose: 50.0 mg/kg/injection, schedule: Q01DX005 (ip), vehicle: water 103 % of control | dose: 60.0 mg/kg/injection, schedule: Q01DX005 (ip), vehicle: Klucel (hydroxypropylcellulose) (HPC) 105 % of control | dose: 100.0 mg/kg/injection, schedule: Q01DX005 (ip), vehicle: water 110 % of control | dose: 120.0 mg/kg/injection, schedule: Q01DX005 (ip), vehicle: Klucel (hydroxypropylcellulose) (HPC) 100 % of control | dose: 240.0 mg/kg/injection, schedule: Q01DX005 (ip), vehicle: Klucel (hydroxypropylcellulose) (HPC) 100 % of control

CC(/C=C/c1ccccc1)=N\O
inactive: [6] 97 % of control | [7] 99 % of control | [8] 97 % of control

COc1ccc(Cc2cc3c(cc2OCC(=O)Nc2ncccn2)OCO3)cc1
inactive: [1] 108 % of control | [2] 88 % of control | [3] 87 % of control

COc1ccc(-n2c(C)nc3c(cnn3C)c2=O)cc1
inactive: dose: 25.0 mg/kg/injection, schedule: Q01DX005 (ip), vehicle: Klucel (hydroxypropylcellulose) (HPC) 101 % of control and 96 % of control | [6] 100 % of control and 101 % of control and 97 % of control | [7] 108 % of control and 115 % of control and 95 % of control | [8] 99 % of control and 120 % of control and 97 % of control

S=P([S][Sn]([S]P(=S)(c1ccccc1)c1ccccc1)([c]1ccccc1)[c]1ccccc1)(c1ccccc1)c1ccccc1
inactive: dose: 1.56 mg/kg/injection, schedule: Q01DX005 (ip), vehicle: Klucel (hydroxypropylcellulose) (HPC) 108 % of control | dose: 3.12 mg/kg/injection, schedule: Q01DX005 (ip), vehicle: Klucel (hydroxypropylcellulose) (HPC) 117 % of control

N#CC1(N2CCCCC2)CCCCC1
inactive: dose: 3.13 mg/kg/injection, schedule: Q01DX009 (ip), vehicle: Klucel (hydroxypropylcellulose) (HPC) 106 % of control | dose: 6.25 mg/kg/injection, schedule: Q01DX009 (ip), vehicle: Klucel (hydroxypropylcellulose) (HPC) 103 % of control | dose: 12.5 mg/kg/injection, schedule: Q01DX009 (ip), vehicle: Klucel (hydroxypropylcellulose) (HPC) 93 % of control

COc1cccc2nncn12
inactive: dose: 50.0 mg/kg/injection, schedule: Q01DX001 (ip), vehicle: saline 100 % of control | dose: 100.0 mg/kg/injection, schedule: Q01DX001 (ip), vehicle: saline 100 % of control | dose: 200.0 mg/kg/injection, schedule: Q01DX001 (ip), vehicle: saline 100 % of control

CCC[CH2][Sn]1([CH2]CCC)[O]OC(c2ccc(C)cc2)[O]1 (stereo unspecified)
inactive: dose: 0.19 mg/kg/injection, schedule: Q01DX009 (ip), vehicle: saline with Tween-80 102 % of control | dose: 0.38 mg/kg/injection, schedule: Q01DX009 (ip), vehicle: saline with Tween-80 94 % of control | dose: 0.75 mg/kg/injection, schedule: Q01DX009 (ip), vehicle: saline with Tween-80 116 % of control

O=C(O)CCCC12CCC(CCCC(=O)O)(CC1)CC2
inactive: dose: 100.0 mg/kg/injection, schedule: Q04DX003 (ip), vehicle: Klucel (hydroxypropylcellulose) (HPC) 99 % of control | dose: 200.0 mg/kg/injection, schedule: Q04DX003 (ip), vehicle: Klucel (hydroxypropylcellulose) (HPC) 97 % of control | dose: 400.0 mg/kg/injection, schedule: Q04DX003 (ip), vehicle: Klucel (hydroxypropylcellulose) (HPC) 104 % of control

CCN1C(=O)CCN(S(=O)(=O)c2ccc(-n3nc(C)cc3C)cc2)C1=S
inactive: [1] 99 % of control | [2] 95 % of control | [3] 103 % of control
